The NIST ThermoML archive (doi:10.1021/je700521t)

Experiment: refractive index (Na D-line) (dimensionless); xn = mol fraction of the nth substance listed
Conditions: 101 kPa, Liquid, Standard Abbe refractometry

CCCCCCCC[n+]1ccn(C)c1.F[B-](F)(F)F [1-methyl-3-octylimidazolium tetrafluoroborate] + CCO
refractive index
Conditions | x2 = 0.081 | x2 = 0.161 | x2 = 0.315 | x2 = 0.511 | x2 = 0.612 | x2 = 0.753
283.15 K | 1.4335 | 1.4315 | 1.43 | 1.4265 | 1.4225 | 1.4132
288.15 K | 1.4323 | 1.4305 | 1.4288 | 1.425 | 1.4212 | 1.4125
293.15 K | 1.431 | 1.4292 | 1.4273 | 1.4237 | 1.42 | 1.411
298.15 K | 1.4295 | 1.428 | 1.426 | 1.423 | 1.4185 | 1.4098
303.15 K | 1.4284 | 1.427 | 1.4245 | 1.4208 | 1.4172 | 1.4085
308.15 K | 1.4268 | 1.4255 | 1.423 | 1.4195 | 1.416 | 1.4072
313.15 K | 1.4255 | 1.424 | 1.4219 | 1.418 | 1.4143 | 1.407
318.15 K | 1.424 | 1.4225 | 1.4205 | 1.4168 | 1.413 | 1.4065
323.15 K | 1.4225 | 1.421 | 1.419 | 1.415 | 1.4115 | 1.4055
328.15 K | 1.4213 | 1.42 | 1.4178 | 1.4137 | 1.41 | 1.4045
333.15 K | 1.4205 | 1.4188 | 1.416 | 1.4125 | 1.4085 | 1.404
338.15 K | 1.419 | 1.4173 | 1.4145 | 1.4118 | 1.4078 | 1.4033
343.15 K | 1.4175 | 1.416 | 1.4132 | 1.411 | 1.4065 | 1.402

CCCCn1cc[n+](C)c1.[O-][Cl+3]([O-])([O-])[O-] [1-butyl-3-methylimidazolium perchlorate] + CCO
refractive index
Conditions | x2 = 0.1 | x2 = 0.165 | x2 = 0.291 | x2 = 0.401 | x2 = 0.479
283.15 K | 1.475 | 1.4725 | 1.468 | 1.4625 | 1.459
288.15 K | 1.4738 | 1.4715 | 1.4667 | 1.4612 | 1.4575
293.15 K | 1.4725 | 1.47 | 1.4655 | 1.4595 | 1.4563
298.15 K | 1.471 | 1.4687 | 1.464 | 1.458 | 1.455
303.15 K | 1.4697 | 1.4673 | 1.4627 | 1.4568 | 1.4535
308.15 K | 1.4685 | 1.466 | 1.4615 | 1.4555 | –
313.15 K | 1.467 | 1.4648 | 1.46 | 1.454 | –
318.15 K | 1.4655 | 1.4637 | 1.4587 | – | –
323.15 K | 1.4645 | 1.462 | 1.457 | – | –
328.15 K | 1.463 | 1.4608 | 1.456 | – | –
333.15 K | 1.4615 | 1.4595 | 1.4545 | – | –
338.15 K | 1.4603 | 1.458 | 1.4532 | – | –
343.15 K | 1.459 | 1.4565 | 1.4518 | – | –
